ChEMBL document CHEMBL5321290, “Discovery of the Diphenyl 6-Oxo-1,6-dihydropyridazine-3-carboxylate/carboxamide Analogue J27 for the Treatment of Acute Lung Injury and Sepsis by Targeting JNK2 and Inhibiting the JNK2-NF-κB/MAPK Pathway” (J Med Chem, 2023)
Activity calls are given as the source filed them. No cut-off for these calls is given here.

Tests used:
[1] = tested on: J774.A1; test: Antiinflammatory activity against mouse J774A.1 cells assessed as inhibition of LPS-stimulated TNFalpha release measured at 10 uM after 30 mins by ELISA relative to control; format: functional; conditions: for inhibition at 10 µM: J774.A1, 0.5 h
[2] = tested on: J774.A1; test: Antiinflammatory activity against mouse J774A.1 cells assessed as inhibition of LPS-stimulated IL6 release measured at 10 uM after 30 mins by ELISA relative to control; format: functional; conditions: for inhibition at 10 µM: J774.A1, 0.5 h

| Structure (SMILES) | inhibition [1] | inhibition [2] | inhibition at 10 µM [1] | inhibition at 10 µM [2] |
| --- | --- | --- | --- | --- |
| CCc1ccccc1-n1nc(C(=O)Nc2cccc(Oc3ncnc4cc(OC)c(OC)cc34)c2)c(C)cc1=O | inactive | inactive | – | – |
| COc1cc2nccc(Oc3cccc(NC(=O)c4nn(-c5ccccc5)c(=O)cc4C)c3)c2cc1OC | – | inactive | 0.35% | – |
| COc1cc2ncnc(Nc3ccc(F)c(OC(=O)c4nn(-c5ccccc5)c(=O)cc4C)c3)c2cc1OC | – | – | 49.6% | 32.1% |
| COc1ccc(-n2nc(C(=O)Nc3ccc(Oc4ncnc5cc(OC)c(OC)cc45)cc3)c(C)cc2=O)cc1 | – | inactive | 57.5% | – |
| CCc1ccccc1-n1nc(C(=O)Nc2ccc(Oc3ncnc4cc(OC)c(OC)cc34)cc2)c(C)cc1=O | – | – | 58% | 18.4% |
| COc1cc2ncnc(Nc3ccc(OC(=O)c4nn(-c5ccccc5)c(=O)cc4C)c(C)c3)c2cc1OC | inactive | – | – | 23.9% |
| CCc1ccc(-n2nc(C(=O)Nc3ccc(Oc4ccnc5cc(OC)c(OC)cc45)cc3)c(C)cc2=O)cc1 | – | – | 61.9% | 34.9% |
| COc1cc2nccc(Oc3ccc(NC(=O)c4nn(-c5ccc(F)cc5)c(=O)cc4C)cc3)c2cc1OC | inactive | – | – | 5.11% |
| COc1cc2ncnc(Nc3ccc(C)c(OC(=O)c4nn(-c5ccccc5)c(=O)cc4C)c3)c2cc1OC | inactive | – | – | 20.7% |
| COc1cc2ncnc(Nc3ccc(F)c(OC(=O)c4nn(-c5ccc(C)cc5)c(=O)cc4C)c3)c2cc1OC | – | – | 34.9% | 48% |
| COc1cc2ncnc(Oc3cccc(NC(=O)c4nn(-c5ccc(C)cc5)c(=O)cc4C)c3)c2cc1OC | inactive | – | – | 47.3% |
| CCc1ccccc1-n1nc(C(=O)Oc2cc(Nc3ncnc4cc(OC)c(OC)cc34)ccc2F)c(C)cc1=O | inactive | inactive | – | – |
| COc1cc2nccc(Oc3ccc(NC(=O)c4nn(-c5ccccc5)c(=O)cc4C)cc3)c2cc1OC | – | inactive | 52% | – |
| COc1cc2ncnc(Oc3ccc(NC(=O)c4nn(-c5ccc(C)cc5)c(=O)cc4C)cc3)c2cc1OC | – | – | 64% | 63% |
| COc1ccc(-n2nc(C(=O)Nc3cccc(Oc4ncnc5cc(OC)c(OC)cc45)c3)c(C)cc2=O)cc1 | inactive | – | – | 7.64% |
| COc1cc2ncnc(Oc3cccc(NC(=O)c4nn(-c5ccc(F)cc5)c(=O)cc4C)c3)c2cc1OC | inactive | – | – | 16.1% |
| CCc1ccc(-n2nc(C(=O)Oc3cc(Nc4ncnc5cc(OC)c(OC)cc45)ccc3F)c(C)cc2=O)cc1 | – | – | 21.8% | 38.3% |
| COc1ccc(-n2nc(C(=O)Oc3cc(Nc4ncnc5cc(OC)c(OC)cc45)ccc3F)c(C)cc2=O)cc1 | inactive | – | – | 31.9% |
| COc1ccc(-n2nc(C(=O)Nc3ccc(Oc4ccnc5cc(OC)c(OC)cc45)cc3)c(C)cc2=O)cc1 | – | inactive | 12.1% | – |
| COc1cc2ncnc(Oc3ccc(NC(=O)c4nn(-c5ccc(F)cc5)c(=O)cc4C)cc3)c2cc1OC | – | – | 70.1% | 20.6% |
| CCc1ccccc1-n1nc(C(=O)Nc2ccc(Oc3ccnc4cc(OC)c(OC)cc34)cc2)c(C)cc1=O | – | – | 27.9% | 55.1% |
| CCc1ccccc1-n1nc(C(=O)Nc2cccc(Oc3ccnc4cc(OC)c(OC)cc34)c2)c(C)cc1=O | – | – | 63.4% | 25.1% |
| COc1ccc(-n2nc(C(=O)Nc3cccc(Oc4ccnc5cc(OC)c(OC)cc45)c3)c(C)cc2=O)cc1 | inactive | inactive | – | – |
| COc1cc2nccc(Oc3cccc(NC(=O)c4nn(-c5ccc(C)cc5)c(=O)cc4C)c3)c2cc1OC | inactive | inactive | – | – |
| COc1cc2ncnc(Oc3cccc(NC(=O)c4nn(-c5ccccc5)c(=O)cc4C)c3)c2cc1OC | inactive | inactive | – | – |
| CCc1ccc(-n2nc(C(=O)Nc3cccc(Oc4ncnc5cc(OC)c(OC)cc45)c3)c(C)cc2=O)cc1 | inactive | – | – | 39% |
| COc1cc2nccc(Oc3cccc(NC(=O)c4nn(-c5ccc(F)cc5)c(=O)cc4C)c3)c2cc1OC | – | – | 20.6% | 38% |
| COc1cc2ncnc(Oc3ccc(NC(=O)c4nn(-c5ccccc5)c(=O)cc4C)cc3)c2cc1OC | – | – | 46.9% | 54.8% |
| COc1cc2ncnc(Nc3ccc(F)c(OC(=O)c4nn(-c5ccc(F)cc5)c(=O)cc4C)c3)c2cc1OC | – | – | 38.8% | 46.5% |
